Reference: ChEMBL document CHEMBL1156103, “Ionic liquid mediated and promoted eco-friendly preparation of thiazolidinone and pyrimidine nucleoside-thiazolidinone hybrids and their antiparasitic activities” (Bioorg Med Chem Lett, 2009)

Tests used:
[1] = test system: Trypanosoma brucei brucei; assay: Antitrypanosomal activity against Trypanosoma brucei brucei GVR 35 trypomastigotes after 72 hrs by MTT assay; type: functional, organism-based; settings: GVR 35, 72 h
[2] = test system: Leishmania donovani; assay: Antileishmanial activity against Leishmania donovani LV9 promastigotes after 72 hrs by MTT assay; type: functional, organism-based; settings: LV9, 72 h

| SMILES | IC50 [1] | IC50 [2] |
| --- | --- | --- |
| CC(=O)OC[C@H]1O[C@@H](n2cc(C3SCC(=O)N3c3ccccn3)c(=O)[nH]c2=O)C[C@@H]1OC(C)=O (some centres undefined) | > 100 µM | > 100 µM |
| CC(=O)OC[C@H]1O[C@@H](n2cc(C3SCC(=O)N3c3cccc([N+](=O)[O-])c3)c(=O)[nH]c2=O)C[C@@H]1OC(C)=O (some centres undefined) | > 100 µM | > 100 µM |
| CC(=O)OC[C@H]1O[C@@H](n2cc(C3SCC(=O)N3c3cccc(Br)n3)c(=O)[nH]c2=O)C[C@@H]1OC(C)=O (some centres undefined) | > 100 µM | 50 µM |
| CC(=O)OC[C@H]1O[C@@H](n2cc(C3SCC(=O)N3c3ccc(Cl)cc3)c(=O)[nH]c2=O)C[C@@H]1OC(C)=O (some centres undefined) | > 100 µM | 25 µM |

Second part, led by results:

| IC50 [1] | SMILES | IC50 [2] |
| --- | --- | --- |
| > 100 µM | CC(=O)OC[C@H]1O[C@@H](n2cc(C3SCC(=O)N3c3ccc(C)cc3)c(=O)[nH]c2=O)C[C@@H]1OC(C)=O (some centres undefined) | 100 µM |
| > 100 µM | CC(=O)OC[C@H]1O[C@@H](n2cc(C3SCC(=O)N3c3ccc(F)cc3)c(=O)[nH]c2=O)C[C@@H]1OC(C)=O (some centres undefined) | 50 µM |
| > 100 µM | CC(=O)OC[C@H]1O[C@@H](n2cc(C3SCC(=O)N3c3ccccc3)c(=O)[nH]c2=O)C[C@@H]1OC(C)=O (some centres undefined) | 50 µM |
